≈ marks a conversion by molar mass, not a printed value.
Experiments:
[1] = tested on: melanoma B-16 tumor cells; assay: Antitumor activity: life span prolongation in mice intraperitoneally transplanted with melanoma B-16 (NCI-protocol 1,300); type: in vivo; details: intraperitoneally once daily for 9 consecutive days
Description: Therapeutic tests were carried out in mice according to NCI-protocol 1,300, Cancer Chemother, Reports, Part 3, 1972, Vol. 3, No. 2, in which melanoma B-16 tumor cells had been intraperitoneally transplanted, compound (I) being administered intraperitoneally once daily for 9 consecutive days.

[2] = tested on: Tetrahymena pyriformis W; assay: Antiprotozoal activity: growth inhibition by serial dilution method; type: cell-based; details: 28° C., 44 to 48 hours, pH 7.0 medium
Description: Antiprotozoal activity of compound (I) was assayed with Tetrahymena pyriformis W as the test organism and a medium composed of 20 g tryptose-peptone (Difco Co.), 1 g yeast extract, 2 g glucose, 1000 ml distilled water, 10 ml 1 M phosphate buffer (pH 7.0) as the assay medium. The microorganism was incubated at 28° C. for 44 to 48 hours and the growth inhibitory activity of compound (I) was assayed by the serial dilution method.

Structure (SMILES): COc1cc2cc(c1Cl)N(C)C(=O)CC(OC(=O)C(OC(C)=O)c1ccccc1)C1(C)OC1C(C)C1CC(O)(NC(=O)O1)C(OC)C=CC=C(C)C2 (stereo not drawn) [Maytansinol 3-α-acetoxyphenylacetate, maytansinol 3-(α-acetoxyphenyl)acetate]
- Antitumor activities B-16 (T/C %) ([1]; dose 3.125 μg/kg): 181%
- Antitumor activities B-16 (T/C %) ([1]; dose 6.25 μg/kg): 260%
- Antitumor activities B-16 (T/C %) ([1]; dose 12.5 μg/kg): 161%
- MIC [2]: < 2 µg/mL

Structure (SMILES): COc1cc2cc(c1Cl)N(C)C(=O)CC(OC(=O)C(COC(C)=O)c1ccccc1)C1(C)OC1C(C)C1CC(O)(NC(=O)O1)C(OC)C=CC=C(C)C2 (stereo not drawn) [maytansinol 3-α-acetoxymethylphenylacetate]
- MIC [2]: 1 to 2 µg/mL (≈ 1.32 to 2.65 µM)

Structure (SMILES): COc1cc2cc(c1Cl)N(C)C(=O)CC(OC(=O)C(O)c1ccccc1)C1(C)OC1C(C)C1CC(O)(NC(=O)O1)C(OC)C=CC=C(C)C2 (single isomer, unassigned) [maytansinol 3-α-hydroxyphenylacetate]
- Antitumor activities B-16 (T/C %) ([1]; dose 100 μg/kg): 178%
- Antitumor activities B-16 (T/C %) ([1]; dose 200 μg/kg): 208%
- Antitumor activities B-16 (T/C %) ([1]; dose 400 μg/kg): 247%
- Antitumor activities B-16 (T/C %) ([1]; dose 800 μg/kg): 217%
